In article PMC12169615, “Fluorescent 4‑Nitrobenzo-2-oxa-1,3-diazole-Coupled Bile Acids as Probe Substrates of Hepatic and Intestinal Bile Acid Transporters of the Solute Carrier Families SLC10 and SLCO” (Journal of Medicinal Chemistry, 2025):
Several values for one entry are separate records, joined by “and”; a condition that tells them apart may be missing. Equal values may be shown once.

Key:
HEK293 cells = assay: Fluorescence microscopy screening: accumulation independent from control conditions; format: cell-based, human; details: 50 μM, 10 min, all HEK293 cell lines, with and without sodium
Protocol: (§1) Then, all cell lines were cultivated in chamber slides and were grown to confluence to screen for carrier-mediated cellular accumulation of the synthesized NBD-BA. Incubation with the NBD-BA was done in the presence of sodium (+Na^+) as well as in the absence of sodium (-Na^+, negative control) for all SLC10 carriers, namely NTCP, ASBT, mNtcp, mAsbt, and SOAT. For OATP1B1 and OATP1B3, nontransfected HEK293 cells were used as negative control.
(§2) 4 Screening of the cellular uptake of 3-NBD-BA in HEK293 (HEK) cells stably expressing the human carriers NTCP, ASBT, SOAT, OATP1B1, and OATP1B3, or the mouse carriers mNtcp and mAsbt. For the SLC10 carriers, sodium-free conditions (-Na^+) were used as control. For the OATPs, experiments in non-carrier-expressing HEK293 cells (HEK) served as control. All cell lines were incubated for 10 min with the indicated 3-NBD-BA at 50 μM concentration. Then, cells were washed with PBS and subjected to fluorescence microscopy. Identical microscope settings were used for all images. Scale bar: 75 μm.

human NTCP [1] = target: T1, human NTCP (Homo sapiens, UniProt Q14973); assay: Fluorescence microscopy screening of cellular uptake of 3-NBD-BA; format: cell-based; details: 50 μM, 10 min, +Na+ vs -Na+
T1 construct: HEK293 cell lines stably transfected with the full open reading frames of human NTCP; expressed in transfected cells
T1 sequence (Q14973 1-349): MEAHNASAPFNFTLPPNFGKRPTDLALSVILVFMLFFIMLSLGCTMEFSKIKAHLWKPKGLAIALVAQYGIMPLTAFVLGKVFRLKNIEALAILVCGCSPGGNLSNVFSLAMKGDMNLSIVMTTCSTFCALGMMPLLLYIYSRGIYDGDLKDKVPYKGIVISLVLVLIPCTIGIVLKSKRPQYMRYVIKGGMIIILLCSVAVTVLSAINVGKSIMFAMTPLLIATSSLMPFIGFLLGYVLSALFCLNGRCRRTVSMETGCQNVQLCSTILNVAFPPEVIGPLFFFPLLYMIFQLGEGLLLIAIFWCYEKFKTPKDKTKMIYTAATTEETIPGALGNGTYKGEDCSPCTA
Protocol: as §1, §2

mouse mNtcp [2] = target: T2, mouse mNtcp (Mus musculus, UniProt O08705); assay: as above; format: cell-based; details: 50 μM, 10 min, +Na+ vs -Na+
T2 construct: stably transfected with the full open reading frames of human NTCP, ASBT, SOAT, OATP1B1, and OATP1B3 as well as mouse mNtcp and mAsbt; expressed in transfected cells
T2 sequence (O08705 1-362): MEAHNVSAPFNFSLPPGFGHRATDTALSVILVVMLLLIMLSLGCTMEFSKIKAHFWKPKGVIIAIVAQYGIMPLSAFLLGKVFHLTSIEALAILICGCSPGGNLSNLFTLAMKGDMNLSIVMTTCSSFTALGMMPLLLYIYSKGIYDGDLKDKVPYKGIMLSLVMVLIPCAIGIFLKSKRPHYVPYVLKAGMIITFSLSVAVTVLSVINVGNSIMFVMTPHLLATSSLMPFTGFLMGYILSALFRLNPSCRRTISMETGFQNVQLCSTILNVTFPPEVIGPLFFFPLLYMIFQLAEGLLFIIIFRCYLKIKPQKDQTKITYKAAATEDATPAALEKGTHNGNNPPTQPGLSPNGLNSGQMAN
Protocol: as §1, §2

human NTCP [3] = target: T1, human NTCP; assay: Transport kinetics of conjugated 3-NBD-BA (concentration-dependent uptake); format: cell-based; details: NTCP-HEK293, 10 min uptake, 37 °C, specific (Na+-dependent) uptake
Protocol: (§3) In a first step, the time-dependent transport of all conjugated NBD-BA was analyzed. […] Based on these findings, an uptake phase of 10 min was selected as the most practical for subsequent kinetic transport measurements. […] In contrast, for ASBT, reliable carrier-specific concentration-dependent transport rates and K m values could only be determined for 3α-NBD-GCA (16d). The transport rates for 3β-NBD-TCA (14a), 3β-NBD-TCDCA (14b), 3β-NBD-GCA (16a), and 3α-NBD-TCA (14d) were at ≤ 2 across the entire concentration range and were therefore not considered biologically meaningful.
(§4) 6 NTCP and mNtcp transport kinetics for conjugated 3-NBD-BA. Concentration-dependent uptake of the indicated NBD-coupled BA was analyzed in HEK293 cells stably expressing human NTCP or mouse mNtcp at increasing substrate concentrations. Control experiments were performed in the absence of sodium (-Na^+). Uptake was analyzed for 10 min at 37 °C with transport buffer containing the indicated 3-NBD-BA. Afterward, the transport medium was removed, and each cell monolayer was washed and processed for fluorescence detection. Specific uptake was calculated by subtracting the nonspecific uptake in the absence of sodium (-Na^+, open symbols) from the uptake in the presence of sodium (+Na^+, closed symbols) and is shown by dotted lines. Values represent means ± SD of quadruplicate determinations. Michaelis Menten K m values were calculated by nonlinear regression analysis based on the specific uptake data.

mouse mNtcp [4] = target: T2, mouse mNtcp; assay: as above; format: cell-based; details: mNtcp-HEK293, 10 min uptake, 37 °C, specific (Na+-dependent) uptake
Protocol: as §3, §4

mouse mAsbt = target: T3, mouse mAsbt (Mus musculus, UniProt P70172); assay: Fluorescence microscopy screening of cellular uptake of 3-NBD-BA; format: cell-based; parameters: stably transfected with the full open reading frames of human NTCP, ASBT, SOAT, OATP1B1, and OATP1B3 as well as mouse mNtcp and mAsbt; expressed in transfected cells; details: 50 μM, 10 min, +Na+ vs -Na+
T3 sequence (P70172 1-348): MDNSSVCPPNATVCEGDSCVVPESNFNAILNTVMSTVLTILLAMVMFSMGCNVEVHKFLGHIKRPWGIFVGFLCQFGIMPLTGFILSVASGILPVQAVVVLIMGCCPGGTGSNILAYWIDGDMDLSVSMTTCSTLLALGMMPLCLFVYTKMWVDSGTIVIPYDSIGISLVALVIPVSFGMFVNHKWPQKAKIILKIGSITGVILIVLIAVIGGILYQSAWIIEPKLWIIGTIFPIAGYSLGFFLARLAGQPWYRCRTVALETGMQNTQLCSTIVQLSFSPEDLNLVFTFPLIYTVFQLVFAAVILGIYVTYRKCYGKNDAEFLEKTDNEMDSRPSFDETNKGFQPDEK
Protocol: as §1, §2

Compound	Cellular NBD-fluorescence irrespective of carrier/control conditions (microscopy) (HEK293 cells)	Cellular NBD-fluorescence, NTCP-HEK293 (microscopy) (human NTCP [1])	Cellular NBD-fluorescence, mNtcp-HEK293 (microscopy) (mouse mNtcp [2])	K m NTCP (human NTCP [3])	K m mNtcp (mouse mNtcp [4]) [µM]	Cellular NBD-fluorescence, mAsbt-HEK293 (microscopy) (mouse mAsbt)
7α-Hydroxy-3β-[(7-nitro-2,1,3-benzoxadiazol-4-yl)amino]-5β-cholan-24-oate [6b]	significant increase in cellular NBD-fluorescence, independent from the control conditions	–	–	–	–	–
12α-Hydroxy-3β-[(7-nitro-2,1,3-benzoxadiazol-4-yl)amino]-5β-cholan-24-oate [6c]	significant increase in cellular NBD-fluorescence, independent from the control conditions	–	–	–	–	–
C[C@H](CCC(=O)O)[C@H]1CC[C@H]2[C@@H]3[C@H](O)C[C@@H]4C[C@@H](Nc5ccc([N+](=O)[O-])c6nonc56)CC[C@]4(C)[C@H]3C[C@H](O)[C@]12C [6a, 7α,12α-Dihydroxy-3β-[(7-nitro-2,1,3-benzoxadiazol-4-yl)amino]-5β-cholan-24-oate]	significant increase in cellular NBD-fluorescence, independent from the control conditions	–	–	–	–	–
C[C@H](CCC(=O)O)[C@H]1CC[C@H]2[C@@H]3[C@H](O)C[C@@H]4C[C@H](Nc5ccc([N+](=O)[O-])c6nonc56)CC[C@]4(C)[C@H]3C[C@H](O)[C@]12C [6d, 7α,12α-Dihydroxy-3α-[(7-nitro-2,1,3-benzoxadiazol-4-yl)amino]-5β-cholan-24-oate]	significant increase in cellular NBD-fluorescence, independent from the control conditions	–	–	–	–	–
C[C@H](CCC(=O)NCCS(=O)(=O)[O-])[C@H]1CC[C@H]2[C@@H]3[C@H](O)C[C@@H]4C[C@@H](Nc5ccc([N+](=O)[O-])c6nonc56)CC[C@]4(C)[C@H]3C[C@H](O)[C@]12C.[Na+] [14a]	–	significant increase in cellular NBD-fluorescence compared to the negative control	significant increase in cellular NBD-fluorescence compared to the negative control	29.5 µM	20.6	significant increase in cellular NBD-fluorescence compared to the negative control
C[C@H](CCC(=O)NCCS(=O)(=O)[O-])[C@H]1CC[C@H]2[C@@H]3[C@H](O)C[C@@H]4C[C@H](Nc5ccc([N+](=O)[O-])c6nonc56)CC[C@]4(C)[C@H]3C[C@H](O)[C@]12C.[Na+] [14d]	–	significant increase in cellular NBD-fluorescence compared to the negative control	significant increase in cellular NBD-fluorescence compared to the negative control	20.0 µM and 20 µM	9.5	significant increase in cellular NBD-fluorescence compared to the negative control
C[C@H](CCC(=O)NCC(=O)O)[C@H]1CC[C@H]2[C@@H]3[C@H](O)C[C@@H]4C[C@@H](Nc5ccc([N+](=O)[O-])c6nonc56)CC[C@]4(C)[C@H]3C[C@H](O)[C@]12C [16a]	–	significant increase in cellular NBD-fluorescence compared to the negative control	significant increase in cellular NBD-fluorescence compared to the negative control	43.1 µM	17.2	significant increase in cellular NBD-fluorescence compared to the negative control
C[C@H](CCC(=O)NCC(=O)O)[C@H]1CC[C@H]2[C@@H]3[C@H](O)C[C@@H]4C[C@H](Nc5ccc([N+](=O)[O-])c6nonc56)CC[C@]4(C)[C@H]3C[C@H](O)[C@]12C [16d]	–	significant increase in cellular NBD-fluorescence compared to the negative control	significant increase in cellular NBD-fluorescence compared to the negative control	36.8 µM	5.2	significant increase in cellular NBD-fluorescence compared to the negative control
